Values of other authors in patent US20260191834A1, “PHARMACEUTICAL COMBINATION FOR THE TREATMENT OF MULTIPLE MYELOMA, MONOCLONAL GAMMOPATHY OF UNDETERMINED SIGNIFICANCE, AND SMOLDERING MULTIPLE MYELOMA” (priority 2022, published 2026).

For `CC[C@H]1OC(=O)[C@H](C)[C@@H](O[C@H]2C[C@@](C)(OC)[C@@H](O)[C@H](C)O2)[C@H](C)[C@@H](O[C@@H]2O[C@H](C)C[C@H](N(C)C)[C@H]2O)[C@](C)(OC)C[C@@H](C)C(=O)[C@H](C)[C@@H](O)[C@]1(C)O` [clarithromycin, Clarithromycin], the “efficacy for treating multiple myeloma” value (as an add-on to chemotherapies) is given as “reported and confirmed” and the “efficacy for Multiple Myeloma” value (given alone as a single treatment) is given as “no efficacy”.
